Measurements published in article PMC4102551, “Screening and Characterisation of Antimicrobial Properties of Semisynthetic Betulin Derivatives” (PLoS ONE, 2014).
Several values for one entry are separate records, joined by “and”; a condition that tells them apart may be missing. Equal values may be shown once. Read-outs that look alike come from different tables or passages of the source.

Tests used:
P. aeruginosa ATCC 27853 = experiment: Broth microdilution assay, P. aeruginosa; format: cell-based, Pseudomonas aeruginosa
Experimental: (§1) Clinically used antimicrobial agents were selected based on international guidelines for antimicrobial testing and were utilised as reference compounds in the antimicrobial assays. The compounds were purchased from Sigma, Fluka and ICN Biomedicals. Stock solutions of the reference compounds were prepared either in double distilled sterile MilliQ water or in DMSO. Water solutions were sterilised through a 0.22 µm filter (VWR International). […] During the primary screening, these reference compounds were used as positive controls at the determined MIC on every plate.
(§2) Gram-negative strains Escherichia coli (ATCC 25922), Enterobacter aerogenes (ATCC 13048) and Pseudomonas aeruginosa (ATCC 27853), Gram-positive strains Staphylococcus aureus (ATCC 25923) and Enterococcus faecalis (ATCC 29212), and fungal strain Candida albicans (ATCC 90028) were obtained from Microbiologics Inc., and used for the antimicrobial screening. Strains were selected according to the guidelines set for clinical laboratories by Clinical and Laboratory Standards Institute [CLSI, formerly National Committee on Clinical Laboratory Standards [22]] and the European Committee on Antimicrobial Susceptibility Testing (EUCAST). Bacterial strains were grown on Mueller Hinton II Agar (MHA) (BBL, BD) and Mueller Hinton II broth (MHB) (BBL, BD), whereas Candida was initiated on Sabouraud Dextrose Agar (SDA) (Difco, BD) plates. Media were prepared into MilliQ water according to manufacturer’s instruction and autoclaved at 121°C for 15 min. Bacteria were plated on MHA plates and incubated at 37°C for 16–18 h. Bacterial suspension for the assays was prepared by subculturing the bacteria into MHB and by incubating at 37°C for 16–20 h at 110 rpm prior to the assay. Candida strain was grown on SDA plates at 27°C for 16–18 h and suspended into sterile 0.9% saline for the assay.
(§3) Antimicrobial screening assays were performed by broth microdilution method following the guidelines of CLSI and EUCAST. Bacterial suspensions were prepared as mentioned earlier and diluted with MHB to obtain a final inoculum of 5×10^5 colony-forming units (cfu)/mL in the assay for all the bacteria (based on OD620 values previously calibrated against plate counts). Candida suspension was prepared into sterile 0.9% saline solution as stated earlier. […] Assays were carried out in clear 96-well microtitre plates and initiated by dispensing an equal volume of microbial suspension and sample solution diluted into the assay medium into the wells. The plates were incubated for 24 h at 37°C (for Candida the incubation was at 35°C for 48 h) with agitation. Absorbance was measured at 620 nm with Victor plate reader (Wallac 1420, Perkin Elmer) at 0, 4 and 24 h with the bacteria, and at 0, 24 and 48 h with Candida. The antimicrobial activity of the samples was calculated from the absorbance values by comparing to the controls, and expressed as a percentage inhibition of growth. All the betulin derivatives were first assayed at the single concentration of 50 µM (two separate experiments, each with three replicates). […] The MIC90 value was expressed as the lowest concentration of compound that inhibited the microbial growth by >90%. The MIC90 results are means of three replicates from two separate experiments.

E. aerogenes ATCC 13048 = experiment: Broth microdilution assay, E. aerogenes; format: cell-based, Enterobacter aerogenes; conditions: for inhibition at 50 µM: Klebsiella aerogenes, ATCC13048, 24 h, read-out: Inhibitory effect (%) E. aerogenes ATCC 13048
Experimental: as §1, §2, §3

S. aureus ATCC 25923 = experiment: Broth microdilution assay, S. aureus; format: cell-based, Staphylococcus aureus; conditions: for inhibition at 50 µM: Staphylococcus aureus, ATCC25923, 24 h
Experimental: as §1, §2, §3

E. faecalis ATCC 29212 = experiment: Broth microdilution assay, E. faecalis; format: cell-based, Enterococcus faecalis; conditions: for inhibition at 50 µM: Enterococcus faecalis, ATCC29212, 24 h
Experimental: as §1, §2, §3

E. coli ATCC 25922 = experiment: Broth microdilution assay, E. coli; format: cell-based, Escherichia coli
Experimental: as §1, §2, §3

in vitro = format: cell-based, human; conditions: human
Experimental: (§4) Huh-7 cells (derived from human hepatocellular carcinoma) were obtained as a gift from Prof. Ralf Bartenschlager (University of Heidelberg, Germany) and used for assessing the cytotoxicity against mammalian cells. HL cells (a heteroploid cell line used for propagating respiratory viruses) were used as a host cell line in the host-pathogen co-culture assay. […] Both cell lines were cultured at 37°C, 5% CO2 and 95% humidity.
(§5) The effect of the betulin derivatives on metabolic activity of Huh-7 cells was evaluated by measuring the intracellular ATP content of the cells after 24 h exposure to the compounds. In brief, cells were seeded at 20000 cells/well on white-walled microplates (PerkinElmer) and incubated at 37°C, 5% CO2 and 95% humidity. After culturing the cells overnight, the medium was replaced with the assay media (5% FBS) containing the sample and the cells were incubated for 24 h. Polymyxin B sulphate (15000 IU/mL) was used as a positive control. Following the incubation period, Promega’s CellTiter-Glo Cell Viability Assay was used to determine the intracellular ATP levels according to the manufacturer’s instructions. Cells were washed with 100 µL 6.7 mM PBS, pH 7.4 and 50 µL of fresh assay media and 50 µL of the CellTiter-Glo reagent were added into the wells. After 2 min shaking, followed by 10 min incubation at RT, luminometric signal was measured using Varioskan Flash plate reader (Thermo Fisher Scientific).

C. albicans ATCC 90028 = experiment: Broth microdilution assay, C. albicans; format: cell-based, Candida albicans
Experimental: as §1, §2, §3

Huh-7 cells = experiment: in vitro; format: cell-based, human; conditions: for Cytotoxicity (%) Huh-7 cells: 50 µM
Experimental: as §4, §5

[1] = Pseudomonas aeruginosa, ATCC27853, 24 h; read-out: Inhibitory effect (%) P. aeruginosa ATCC 27853
[2] = 50 µM, 24 h, inhibition of growth, mean ± SD
[3] = 50 µM, 24 h, inhibition of growth, mean ± SD, read-out: Inhibitory effect (%) S. aureus ATCC 25923
[4] = 50 µM, 24 h, inhibition of growth, mean ± SD, read-out: Inhibitory effect (%) E. faecalis ATCC 29212
[5] = Escherichia coli, ATCC25922, 24 h; read-out: Inhibitory effect (%) E. coli ATCC 25922
[6] = Candida albicans, ATCC90028, 48 h; read-out: Inhibitory effect (%) C. albicans ATCC 90028
[7] = 50 µM, 24 h exposure, ATP content, 5% FBS, read-out: Cytotoxicity (%) Huh-7 cells
[8] = 24 h exposure, ATP content, 5% FBS
[9] = 50 µM, 48 h at 35°C, inhibition of growth, mean ± SD

Row | Structure (SMILES) | inhibition at 50 µM (P. aeruginosa ATCC 27853; [1]) | inhibition at 50 µM (E. aerogenes ATCC 13048; [2]) | inhibition at 50 µM (S. aureus ATCC 25923; [3]) | Inhibitory effect (%) E. faecalis ATCC 29212 (E. faecalis ATCC 29212; [2]) | inhibition at 50 µM (E. faecalis ATCC 29212; [4]) | inhibition at 50 µM (E. coli ATCC 25922; [5]) | cytotoxicity at 24 h, 50 µM (in vitro; Cytotoxicity (%) Huh-7 cells) | inhibition at 50 µM (C. albicans ATCC 90028; [6]) | Inhibitory effect (%) P. aeruginosa ATCC 27853 (P. aeruginosa ATCC 27853; [2]) | Inhibitory effect (%) E. aerogenes ATCC 13048 (E. aerogenes ATCC 13048; [2]) | Inhibitory effect (%) S. aureus ATCC 25923 (S. aureus ATCC 25923; [2]) | Inhibitory effect (%) E. coli ATCC 25922 (E. coli ATCC 25922; [2]) | Cytotoxicity (%) Huh-7 cells (Huh-7 cells; [8]) | Inhibitory effect (%) C. albicans ATCC 90028 (C. albicans ATCC 90028; [9]) | other results
1 | CC(C)[C@@H]1CC[C@]2(C(=O)O)CC[C@]3(C)[C@H](CC[C@@H]4[C@@]5(C)CCC(=O)C(C)(C)[C@@H]5CC[C@]43C)[C@@H]12 [Compound 24, dihydrobetulonic acid] | 4.9 ± 0.5% | 16.8 ± 5.4% | 15.1 ± 3.7% | 56.6±2.0% | 57% | 6.2 ± 4.5% | 13 ± 10.3% | 54.9 ± 8.3% | – | – | – | – | – | – | –
2 | CC(=O)OCC12CCC3(C(C)C)C1=C1C(CC4C5(C)CCC(OC(C)=O)C(C)(C)C5CCC4(C)C1(C)CC2)n1c(=O)n(-c2cccc([N+](=O)[O-])c2)c(=O)n13 (centres unmarked) [Compound 38] | 7.6 ± 1.4% | 19.3 ± 3% | 6.7 ± 1.5% | 74% and 73.9±1.4% | > 70% | 8.8 ± 2.6% | – | -13.8% | – | – | – | – | – | – | cytotoxicity at 24 h, 50 µM (in vitro; [7]): 8.3 ± 3.9%
3 | C=C(C)[C@@H]1CC[C@]2(C=O)CC[C@]3(C)C(CCC4[C@@]5(C)CC[C@H](O)C(C)(C)C5CC[C@]43C)C12 (some centres unmarked) [Compound 18, betulinic aldehyde] | 3.9 ± 0.6% | 13.5 ± 2.6% | -35.5% | – | 39.6 ± 8% | 2.7 ± 2.4% | 61% | 6.9 ± 8.1% | – | – | – | – | – | – | IC50 at 24 h (in vitro): 47 µM; Cytotoxicity (%) Huh-7 cells (Huh-7 cells; human, 24 h): 61.3±9.5%
4 | C=C(C)[C@@H]1CC[C@]2(C(=O)Oc3ccc(C=O)cc3OC)CC[C@]3(C)[C@H](CC[C@@H]4[C@@]5(C)CCC(=O)C(C)(C)C5CC[C@]43C)[C@@H]12 (some centres unmarked) [Compound 26, vanillinyl betulonate] | – | – | – | 58.7±0.1% | – | – | -10.1 ± 2.2% | – | – | – | – | – | – | – | inhibition at 50 µM (P. aeruginosa ATCC 27853; Pseudomonas aeruginosa, ATCC27853, 24 h, read-out: Inhibitory effect (%) P. aeruginosa ATCC 27853): 6.6 ± 1%; inhibition at 50 µM (E. aerogenes ATCC 13048): 7.5 ± 0.6%; inhibition at 50 µM (S. aureus ATCC 25923; read-out: Inhibitory effect (%) S. aureus ATCC 25923, 50 µM, 24 h, inhibition of growth, mean ± SD): 7.3 ± 5.8%; inhibition at 50 µM (E. faecalis ATCC 29212; read-out: Inhibitory effect (%) E. faecalis ATCC 29212, 50 µM, 24 h, inhibition of growth, mean ± SD): 59%; inhibition at 50 µM (E. coli ATCC 25922; Escherichia coli, ATCC25922, 24 h, read-out: Inhibitory effect (%) E. coli ATCC 25922): 4.1 ± 0.4%; inhibition at 50 µM (C. albicans ATCC 90028; Candida albicans, ATCC90028, 48 h, read-out: Inhibitory effect (%) C. albicans ATCC 90028): -65.9 ± 15%
5 | C=C(C)[C@@H]1CC[C@]2(COC(=O)COc3cc(C(C)C)ccc3C)CC[C@]3(C)[C@H](CC[C@@H]4[C@@]5(C)CC[C@H](O)C(C)(C)[C@@H]5CC[C@]43C)[C@@H]12 [Compound 4, betulinyl 28-carboxymethoxycarvacrolate] | 3 ± 3% | 9.9 ± 3.3% | -17.2% | 72% and 72.3±4.0% | > 70% | -1.2% | -4.6% | 31.4 ± 9.1% | – | – | – | – | – | – | –
6 | C=C(C)C1CCC2(C=NO)CCC3(C)C(CCC4C5(C)CCC(O)C(C)(C)C5CCC43C)C12 (centres unmarked) [Compound 31, betulin-28-oxime] | 5.4 ± 2.2% | 14.6 ± 0.9% | 6.4 ± 3.4% | – | 41 ± 3.4% | 1.9 ± 4% | 61% | -73.5% | – | – | – | – | – | – | IC50 at 24 h (in vitro): 25 µM; inhibition at 100 µM (Huh-7 cells; Homo sapiens, Huh-7, 100 µM, 24 h, read-out: Inhibition in ATP assay, Huh-7 cells): 60%; Cytotoxicity (%) Huh-7 cells (Huh-7 cells; human, 24 h): 61.5±2.0%
7 | CC(C)C12CCC3(COC(=O)c4ccccc4)CCC4(C)C(=C31)C(CC1C3(C)CCC(OC(=O)c5ccccc5)C(C)(C)C3CCC14C)n1c(=O)n(C)c(=O)n12 (centres unmarked) [Compound 49] | – | – | – | 64.6±0.8% | – | – | – | – | 5.3±1.9% | 14.2±1.5% | 15.1±1.0% | 0.0±6.0% | -10.6±4.1% | -48.0±24.5% | –
8 | CCCC(=O)OCC12CCC3(C(C)C)C1=C1C(CC4C5(C)CCC(OC(=O)CCC)C(C)(C)C5CCC4(C)C1(C)CC2)n1c(=O)n(C)c(=O)n13 (centres unmarked) [Compound 46] | – | – | – | 44.8±2.8% | – | – | – | – | 5.2±0.7% | 7.4±5.9% | 2.5±3.1% | -2.1±6.4% | 6.4±2.9% | -56.1±14.6% | –
9 | CC(C)C(=O)OCC12CCC3(C(C)C)C1=C1C(CC4C5(C)CCC(OC(=O)C(C)C)C(C)(C)C5CCC4(C)C1(C)CC2)n1c(=O)n(C)c(=O)n13 (centres unmarked) [Compound 47] | – | – | – | 47.8±1.3% | – | – | – | – | 1.4±0.8% | 9.6±1.7% | 2.9±1.0% | -3.8±4.2% | -4.9±2.2% | 12.0±12.7% | –
10 | CC(=O)OCC12CCC3(C(C)C)C1=C1C(CC4C5(C)CCC(OC(C)=O)C(C)(C)C5CCC4(C)C1(C)CC2)n1c(=O)n(-c2ccc4c(c2)OCO4)c(=O)n13 (centres unmarked) [Compound 35] | 5.5 ± 1% | 14.2 ± 1.6% | 5.9 ± 1.2% | 70.0±0.9% | > 70% | 3.4 ± 3.1% | – | 4.4 ± 12.9% | – | – | – | – | – | – | cytotoxicity at 24 h, 50 µM (in vitro; [7]): -0.1%
